Logp and Efficacy % data for 48 molecules are collected here from patent US8796463B2 (priority 2009, dated 2014).

Series [1] can be described thus: log P by HPLC on reversed phase columns (EEC directive 79/831 Annex V.A8). It counts as physicochemical. Particulars: pH 2.7, 0.1% formic acid in water / acetonitrile gradient. As to the method:
Measurement of log P values was performed according EEC directive 79/831 Annex V.A8 by HPLC (High Performance Liquid Chromatography) on reversed phase columns with the following method:
measurement of LC-MS was done at pH 2.7 with 0.1% formic acid in water and with acetonitrile (contains 0.1% formic acid) as eluent with a linear gradient from 10% acetonitrle to 95% acetonitrile.
Calibration was done with not branched alkan2-ones (with 3 to 16 carbon atoms) with known log P-values (measurement of log P values using retention times with linear interpolation between successive alkanones). lambda-maX-values were determined using UV-spectra from 200 nm to 400 nm and the peak values of the chromatographic signals.

For another series, the system named is Phytophthora infestans. It counts as in vivo. Particulars: tomato, preventive spray, 100 ppm of active ingredient, evaluated 7 days after inoculation.
For another series, the system named is Plasmopara viticola. As to the kind of experiment: Plasmopara test (grapevines) / preventive. It counts as in vivo. Particulars: preventive spray, 10 ppm of active ingredient, evaluated 6 days after inoculation. Here is the method:
Plasmopara Test (Grapevines)/Preventive
To produce a suitable preparation of active compound, 1 part by weight of active compound is mixed with the stated amounts of solvent and emulsifier, and the concentrate is diluted with water to the desired concentration.
To test for preventive activity, young plants are sprayed with the preparation of active compound at the stated rate of application. After the spray coating has dried on, the plants are inoculated with an aqueous spore suspension of Plasmopara viticola and then remain for 1 day in an incubation cabinet at approximately 20° C. and a relative atmospheric humidity of 100%. The plant is subsequently placed for 4 days in a greenhouse at approximately 21° C. and a relative atmospheric humidity of approximately 90%. The plants are then misted and placed for 1 day in an incubation cabinet.
The test is evaluated 6 days after the inoculation. 0% means an efficacy which corresponds to that of the untreated control, while an efficacy of 100% means that no disease is observed.

In turn, `COc1cccc2c1OC(C(=O)Nc1cccc(CON=C(c3ccccc3)c3nnnn3C)n1)CC2` (centres unmarked) [Example 3] had a logp in series [1] of 3.92. Further, the Efficacy % with Phytophthora infestans was determined as 95%.
In series [1], `Cc1ccc2c(c1)OC(C(=O)Nc1cccc(CON=C(c3ccccc3)c3nnnn3C)n1)CO2` (centres unmarked) [Example 7] yielded a logp of 4.03. In addition, the Efficacy % in the series with Phytophthora infestans came to 95%; in the series with Plasmopara viticola, 75%.
`Cn1nnnc1C(=NOCc1cccc(NC(=O)C2COc3ccccc3O2)n1)c1ccccc1` (centres unmarked) [Example 9] returned a logp in series [1] of 3.69. Besides, the Efficacy % with Phytophthora infestans came out at 85%; in the series on Plasmopara viticola it was 97%.
Regarding `Cn1nnnc1C(=NOCc1csc(NC(=O)C2CCc3cc(I)ccc3O2)n1)c1ccccc1` (centres unmarked) [Example 17], in series [1], the logp was 4.44. Also, in the series on Phytophthora infestans, the Efficacy % is 93%.
`Cc1nnnn1C(=NOCc1csc(NC(=O)c2cc(=O)c3ccccc3o2)n1)c1ccccc1` [Example 44]: the logp in series [1] is given as 3.21. In addition, the Efficacy % with Phytophthora infestans is 95%.
For `Cc1nnnn1C(=NOCc1cccc(NC(=O)C2Oc3ccccc3O2)n1)c1ccccc1` [Example 57], in that order: 3.48 and 88%.
Taken in the same sequence, the figures for `Cc1cccc2c1OC(C(=O)Nc1nc(CON=C(c3ccccc3)c3nnnn3C)cs1)CO2` (centres unmarked) [Example 13] were 3.83 and 98%.
Regarding `Cc1nnnn1C(=NOCc1csc(NC(=O)C2CCc3ccccc3O2)n1)c1ccccc1` (centres unmarked) [Example 32], in series [1], the logp was 3.83. The molecule also returned an Efficacy % with Phytophthora infestans of 95%.
For `Cc1nnnn1C(=NOCc1cccc(NC(=O)C2CCc3ccccc3O2)n1)c1ccccc1` (centres unmarked) [Example 24], in that order: 4.08 and 93%.
The molecule `Cn1nnnc1C(=NOCc1cccc(NC(=O)C2Oc3ccccc3O2)n1)c1ccccc1` [Example 60] gave a logp in series [1] of 3.44. The values for the Efficacy % with Phytophthora infestans and with Plasmopara viticola were 95% and 97%, respectively.
In series [1], `Cn1nnnc1C(=NOCc1csc(NC(=O)C2COc3ccc(C(C)(C)C)cc3O2)n1)c1ccccc1` (centres unmarked) [Example 15] registered a logp of 4.62. In the series with Phytophthora infestans, this molecule had an Efficacy % of 90%.
Consider `Cc1nnnn1C(=NOCc1cccc(NC(=O)C2COc3ccccc32)n1)c1ccccc1` (centres unmarked) [Example 58], for which the logp in series [1] is 3.39.
`Cn1nnnc1C(=NOCc1csc(NC(=O)C2Oc3ccccc3O2)n1)c1ccccc1` [Example 48] yielded a logp in series [1] of 3.29. The same molecule showed an Efficacy % with Phytophthora infestans of 80%.
As for `Cc1nnnn1C(=NOCc1cccc(NC(=O)C2COc3ccc(C(C)(C)C)cc3O2)n1)c1ccccc1` (centres unmarked) [Example 25], the logp in series [1] is 5.03. In the series on Phytophthora infestans, this molecule registered an Efficacy % of 93%.
`Cc1nnnn1C(=NOCc1cccc(NC(=O)C2COc3ccccc3O2)n1)c1ccccc1` (centres unmarked) [Example 28] showed a logp in series [1] of 3.78. In the series with Phytophthora infestans, this molecule gave an Efficacy % of 98%.
`Cn1nnnc1C(=NOCc1csc(NC(=O)C2Cc3ccccc3O2)n1)c1ccccc1` (centres unmarked) [Example 42] gave a logp in series [1] of 3.39. The Efficacy % with Phytophthora infestans was 89%; in the series on Plasmopara viticola, 100%.
Molecule `Cc1nnnn1C(=NOCc1csc(NC(=O)C2COc3ccc(C(C)(C)C)cc3O2)n1)c1ccccc1` (centres unmarked) [Example 33] returned a logp in series [1] of 4.67. In the series with Phytophthora infestans, the Efficacy % is on record as 90%.
For `Cc1nnnn1C(=NOCc1csc(NC(=O)C2CC(=O)c3cc(F)ccc3O2)n1)c1ccccc1` (centres unmarked) [Example 37], in series [1], the logp came out at 3.33. This molecule also came in with an Efficacy % in the series with Phytophthora infestans of 95%.
For `Cn1nnnc1C(=NOCc1cccc(NC(=O)C2CCc3ccccc3O2)n1)c1ccccc1` (centres unmarked) [Example 5], in series [1], the logp came out at 4.01. In addition, the Efficacy % in the series on Phytophthora infestans was found to be 95%; in the series on Plasmopara viticola, 89%.
In the case of `COc1ccc2c(c1)OC(C(=O)Nc1cccc(CON=C(c3ccccc3)c3nnnn3C)n1)CC2` (centres unmarked) [Example 39], the logp in series [1] stood at 3.96. The molecule also came in with an Efficacy % in the series with Phytophthora infestans of 95%.
For `Cc1nnnn1C(=NOCc1cccc(NC(=O)C2CCc3cc(I)ccc3O2)n1)c1ccccc1` (centres unmarked) [Example 21], in that order: 4.81 and 80%.
As to `COc1cccc2c1OC(C(=O)Nc1nc(CON=C(c3ccccc3)c3nnnn3C)cs1)CC2` (centres unmarked) [Example 18], the logp in series [1] came out at 3.64. In addition, in the series on Phytophthora infestans, the Efficacy % came to 95%.
Taken in the same sequence, the figures for `Cc1nnnn1C(=NOCc1cccc(NC(=O)c2cc(=O)c3ccccc3o2)n1)c1ccccc1` [Example 43] were 3.33 and 85%.
As for `COc1cccc2c1OC(C(=O)Nc1cccc(CON=C(c3ccccc3)n3nnnc3C)n1)CC2` (centres unmarked) [Example 22], the logp in series [1] stood at 3.99. The molecule further returned an Efficacy % in the series on Phytophthora infestans of 80%.
For `COc1cccc2c1OC(C(=O)Nc1nc(CON=C(c3ccccc3)n3nnnc3C)cs1)CC2` (centres unmarked) [Example 30], in that order: 3.69 and 95%.
In series [1], `Cn1nnnc1C(=NOCc1csc(NC(=O)C2CC(=O)c3cc(F)ccc3O2)n1)c1ccccc1` (centres unmarked) [Example 16] displayed a logp of 3.29. This molecule came in with an Efficacy % with Phytophthora infestans of 93%.
Taken in the same sequence, the figures for `Cc1nnnn1C(=NOCc1cccc(NC(=O)C2CC(=O)c3cc(F)ccc3O2)n1)c1ccccc1` (centres unmarked) [Example 29] were 3.53 and 90%.
Taken in the same sequence, the figures for `Cc1cccc2c1OC(C(=O)Nc1nc(CON=C(c3ccccc3)n3nnnc3C)cs1)CO2` (centres unmarked) [Example 35] were 3.87 and 95%.
Taken in the same sequence, the figures for `Cc1nnnn1C(=NOCc1csc(NC(=O)C2COc3ccccc3O2)n1)c1ccccc1` (centres unmarked) [Example 36] were 3.51 and 95%.
With `Cc1nnnn1C(=NOCc1cccc(NC(=O)C2CCc3cc(F)ccc3O2)n1)c1ccccc1` (centres unmarked) [Example 23], in series [1], the logp is 4.11. Also, in the series with Phytophthora infestans, the Efficacy % was determined as 90%.
As to `Cc1nnnn1C(=NOCc1csc(NC(=O)C2Oc3ccccc3O2)n1)c1ccccc1` [Example 46], the logp in series [1] came to 3.31. For the same molecule, the Efficacy % with Phytophthora infestans is given as 75%.
Taken in the same sequence, the figures for `Cn1nnnc1C(=NOCc1cccc(NC(=O)C2CCc3cc(I)ccc3O2)n1)c1ccccc1` (centres unmarked) [Example 2] were 4.7 and 95%.
Taken in the same sequence, the figures for `Cn1nnnc1C(=NOCc1csc(NC(=O)C2COc3ccccc3O2)n1)c1ccccc1` (centres unmarked) [Example 14] were 3.46 and 90%.
In turn, `Cn1nnnc1C(=NOCc1csc(NC(=O)C2CCc3cc(F)ccc3O2)n1)c1ccccc1` (centres unmarked) [Example 19] registered a logp in series [1] of 3.8. Further, the Efficacy % in the series on Phytophthora infestans is reported as 95%.
On to `Cn1nnnc1C(=NOCc1cccc(NC(=O)c2cc(=O)c3ccccc3o2)n1)c1ccccc1` [Example 59], for which the logp in series [1] is 3.27. Also, the Efficacy % in the series on Phytophthora infestans was 95%.
For `Cn1nnnc1C(=NOCc1cccc(NC(=O)C2CC(=O)c3cc(F)ccc3O2)n1)c1ccccc1` (centres unmarked) [Example 1], in that order: 3.46 and 93%.
With `Cn1nnnc1C(=NOCc1cccc(NC(=O)C2COc3ccc(C(C)(C)C)cc3O2)n1)c1ccccc1` (centres unmarked) [Example 6], in series [1], the logp is 4.92. Also, in the series on Phytophthora infestans, the Efficacy % is listed as 93%.
Taken in the same sequence, the figures for `Cn1nnnc1C(=NOCc1cccc(NC(=O)C2CCc3cc(F)ccc3O2)n1)c1ccccc1` (centres unmarked) [Example 4] were 4.01 and 95%.
The molecule `Cc1cccc2c1OC(C(=O)Nc1cccc(CON=C(c3ccccc3)n3nnnc3C)n1)CO2` (centres unmarked) [Example 27] displayed a logp in series [1] of 4.15. For the same molecule, in the series on Phytophthora infestans, the Efficacy % was determined as 95%.
Taken in the same sequence, the figures for `Cc1nnnn1C(=NOCc1csc(NC(=O)C2CCc3cc(F)ccc3O2)n1)c1ccccc1` (centres unmarked) [Example 31] were 3.87 and 95%.
Regarding `Cc1ccc2c(c1)OC(C(=O)Nc1nc(CON=C(c3ccccc3)c3nnnn3C)cs1)CO2` (centres unmarked) [Example 12], the logp in series [1] is reported as 3.78. In addition, the Efficacy % in the series on Phytophthora infestans stood at 95%.
`Cn1nnnc1C(=NOCc1csc(NC(=O)c2cc(=O)c3ccccc3o2)n1)c1ccccc1` [Example 47] returned a logp in series [1] of 3.17. In the series with Phytophthora infestans, this molecule yielded an Efficacy % of 70%.
Taken in the same sequence, the figures for `Cn1nnnc1C(=NOCc1csc(NC(=O)C2CCc3ccccc3O2)n1)c1ccccc1` (centres unmarked) [Example 20] were 3.78 and 93%.
In series [1], `Cn1nnnc1C(=NOCc1csc(NC(=O)C2COc3ccccc32)n1)c1ccccc1` (centres unmarked) [Example 49] registered a logp of 3.19.
Same read-out and setting: then `Cn1nnnc1C(=NOCc1cccc(NC(=O)C2COc3ccccc32)n1)c1ccccc1` (centres unmarked) [Example 61], with 3.37.
`Cc1nnnn1C(=NOCc1csc(NC(=O)C2CCc3cc(I)ccc3O2)n1)c1ccccc1` (centres unmarked) [Example 38] yielded a logp in series [1] of 4.49. In the series with Phytophthora infestans, the Efficacy % was 95%.
Taken in the same sequence, the figures for `Cc1ccc2c(c1)OC(C(=O)Nc1cccc(CON=C(c3ccccc3)n3nnnc3C)n1)CO2` (centres unmarked) [Example 26] were 4.11 and 95%.
In series [1], `Cc1ccc2c(c1)OC(C(=O)Nc1nc(CON=C(c3ccccc3)n3nnnc3C)cs1)CO2` (centres unmarked) [Example 34] yielded a logp of 3.83. For the same molecule, in the series on Phytophthora infestans, the Efficacy % was 95%.
